Measured values as given in patent US7655664B2, “Hydantoin derivatives as metalloproteinase inhibitors” (AstraZeneca AB, priority 2004, dated 2010).

Tests used:
Type in all cases: biochemical
[1] = target: T1, Recombinant human MMP9 catalytic domain (Homo sapiens, UniProt P14780); assay: MMP9 isolated enzyme assay (fluorogenic substrate); settings: 30 min, RT, read-out: hMMP9 IC50
T1 sequence (P14780 with tags, fused parts or gaps DEL216-390 limits assumed): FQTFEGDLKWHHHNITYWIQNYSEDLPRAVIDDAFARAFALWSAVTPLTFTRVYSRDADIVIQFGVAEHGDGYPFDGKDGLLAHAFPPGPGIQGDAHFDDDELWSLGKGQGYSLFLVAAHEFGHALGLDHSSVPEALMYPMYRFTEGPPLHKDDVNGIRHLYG
Protocol: Recombinant human MMP9 catalytic domain was expressed and then purified by Zn chelate column chromatography followed by hydroxamate affinity column chromatography. The enzyme can be used to monitor inhibitors of activity as follows: MMP9 (5 ng/ml final concentration) is incubated for 30 minutes at RT with the synthetic substrate Mca-Pro-Cha-Gly-Nva-His-Ala-Dpa-NH2 (5 μM) in assay buffer (0.1M “Tris-HCl” (trade mark) buffer, pH 7.3 containing 0.1M NaCl, 20 mM CaCl2, 0.020 mM ZnCl and 0.05% (w/v) “Brij 35” (trade mark) detergent) in the presence (10 concentrations) or absence of inhibitors. Activity is determined by measuring the fluorescence at […]. Percent inhibition is calculated as follows: % Inhibition is equal to the [Fluorescenceplus inhibitor−Fluorescencebackground] divided by the [Fluorescenceminus inhibitor−Fluorescencebackground]. MMP14

[2] = target: T2, Recombinant human MMP14 catalytic domain (Homo sapiens, UniProt P50281); assay: MMP14 isolated enzyme assay (fluorogenic substrate); settings: 60 min, room temperature, read-out: hMMP14 IC50
T2 construct: Recombinant human MMP14 catalytic domain; made in house
Protocol: Recombinant human MMP14 catalytic domain may be expressed and purified as described by Parkar A. A. et al, (2000), Protein Expression and Purification, 20, 152. The purified enzyme can be used to monitor inhibitors of activity as follows: MMP14 (10 ng/ml final concentration) is incubated for 60 minutes at room temperature with the synthetic substrate Mca-Pro-Cha-Gly-Nva-His-Ala-Dpa-NH2 (10 μM) in assay buffer (0.1M “Tris-HCl” (trade mark) buffer, pH 7.5 containing 0.1M NaCl, 20 mM CaCl2, 0.020 mM ZnCl and 0.05% (w/v) “Brij 35” (trade mark) detergent) in the presence (5 concentrations) or absence of inhibitors. Activity is determined by measuring the fluorescence at λex 320 nm and λem 405 nm. Percent inhibition is calculated as follows: % Inhibition is equal to the [Fluorescenceplus inhibitor−Fluorescencebackground] divided by the [Fluorescenceminus inhibitor−Fluorescencebackground].

[3] = target: T3, hMMP8 (APMA-activated pro-MMP8) (Homo sapiens, UniProt P22894); assay: MMP8 isolated enzyme assay (fluorogenic substrate); settings: 90 min, 35° C.
T3 construct: purchased Calbiochem
T3 sequence (P22894 101-467): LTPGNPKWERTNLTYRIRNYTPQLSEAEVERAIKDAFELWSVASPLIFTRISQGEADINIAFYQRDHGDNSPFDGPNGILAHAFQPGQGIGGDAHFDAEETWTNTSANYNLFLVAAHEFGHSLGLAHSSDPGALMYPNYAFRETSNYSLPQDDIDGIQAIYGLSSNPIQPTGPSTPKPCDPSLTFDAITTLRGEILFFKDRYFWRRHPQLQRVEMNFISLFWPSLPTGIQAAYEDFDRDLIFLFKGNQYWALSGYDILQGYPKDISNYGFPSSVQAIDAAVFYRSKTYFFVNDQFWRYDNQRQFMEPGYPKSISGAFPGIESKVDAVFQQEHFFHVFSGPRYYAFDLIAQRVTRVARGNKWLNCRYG
Protocol: Purified pro-MMP8 is purchased from Calbiochem. The enzyme (at 10 μg/ml) is activated by p-amino-phenyl-mercuric acetate (APMA) at 1 mM for 2.5 h, 35° C. The activated enzyme can be used to monitor inhibitors of activity as follows: MMP8 (200 ng/ml final concentration) is incubated for 90 minutes at 35° C. (80% H2O) with the synthetic substrate Mca-Pro-Cha-Gly-Nva-His-Ala-Dpa-NH2 (12.5 μM) in assay buffer (0.1 M “Tris-HCl” (trade mark) buffer, pH 7.5 containing 0.1M NaCl, 30 mM CaCl2, 0.040 mM ZnCl and 0.05% (w/v) “Brij 35” (trade mark) detergent) in the presence (10 concentrations) or absence of inhibitors. Activity is determined by measuring the fluorescence at λex 320 nm and λem 405 nm. Percent inhibition is calculated as follows: % Inhibition is equal to the [Fluorescenceplus inhibitor−Fluorescencebackground] divided by the [Fluorescenceminus inhibitor−Fluorescencebackground]. MMP9

[4] = target: T4, Recombinant human MMP12 catalytic domain (Homo sapiens, UniProt P39900); assay: MMP12 isolated enzyme assay (fluorogenic substrate); settings: 60 min, room temperature, read-out: hMMP12 IC50
T4 construct: Recombinant human MMP12 catalytic domain; made in house
T4 sequence (P39900 106-263 limits assumed): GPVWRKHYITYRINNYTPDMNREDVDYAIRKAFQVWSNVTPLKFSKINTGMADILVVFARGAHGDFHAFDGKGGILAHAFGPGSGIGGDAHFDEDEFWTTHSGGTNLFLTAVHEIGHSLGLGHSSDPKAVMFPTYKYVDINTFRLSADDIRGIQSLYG
Protocol: Recombinant human MMP12 catalytic domain may be expressed and purified as described by Parkar A. A. et al, (2000), Protein Expression and Purification, 20, 152. The purified enzyme can be used to monitor inhibitors of activity as follows: MMP12 (50 ng/ml final concentration) is incubated for 60 minutes at room temperature with the synthetic substrate Mca-Pro-Cha-Gly-Nva-His-Ala-Dpa-NH2 (10 μM) in assay buffer (0.1M “Tris-HCl” (trade mark) buffer, pH 7.3 containing 0.1M NaCl, 20 mM CaCl2, 0.020 mM ZnCl and 0.05% (w/v) “Brij 35” (trade mark) detergent) in the presence (10 concentrations) or absence of inhibitors. Activity is determined by measuring the fluorescence at λex 320 nm and λem 405 nm. Percent inhibition is calculated as follows: % Inhibition is equal to the [Fluorescenceplus inhibitor−Fluorescencebackground] divided by the [Fluorescenceminus inhibitor−Fluorescencebackground]. MMP8

[5] = target: T5, Recombinant human MMP19 catalytic domain (Homo sapiens, UniProt Q99542); assay: MMP19 isolated enzyme assay (fluorogenic substrate); settings: 120 min, 35° C., read-out: hMMP19 IC50
T5 construct: Recombinant human MMP19 catalytic domain; made in house
T5 sequence (Q99542 98-256 limits assumed): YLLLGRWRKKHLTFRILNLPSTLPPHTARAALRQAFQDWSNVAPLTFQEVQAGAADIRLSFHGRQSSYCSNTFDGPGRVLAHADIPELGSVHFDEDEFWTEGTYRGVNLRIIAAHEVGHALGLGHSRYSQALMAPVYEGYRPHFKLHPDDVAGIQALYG
Protocol: Recombinant human MMP19 catalytic domain may be expressed and purified as described by Parkar A. A. et al, (2000), Protein Expression and Purification, 20:152. The purified enzyme can be used to monitor inhibitors of activity as follows: MMP19 (40 ng/ml final concentration) is incubated for 120 minutes at 35° C. with the synthetic substrate Mca-Pro-Leu-Ala-Nva-Dpa-Ala-Arg-NH2 (5 μM) in assay buffer (0.1M “Tris-HCl” (trade mark) buffer, pH 7.3 containing 0.1M NaCl, 20 mM CaCl2, […] ZnCl and 0.05% (w/v) “Brij 35” (trade mark) detergent) in the presence (5 concentrations) or absence of inhibitors. Activity is determined by measuring the fluorescence at λex 320 nm and λem 405 nm. Percent inhibition is calculated as follows: % Inhibition is equal to the [Fluorescenceplus inhibitor−Fluorescencebackground] divided by the [Fluorescenceminus inhibitor−Fluorescencebackground].

IC50 [1] [nM] | IC50 [2] [nM] | IC50 [3] [nM] | IC50 [4] [nM] | IC50 [5] [nM] | Compound
21.5 | > 10000 | 2470 | 26.6 | – | C[C@]1(CS(=O)(=O)N2CCc3cc(-c4ccc(C5CC5)nc4)ncc3C2)NC(=O)NC1=O [Example 2, (5S)-5-({[6-(6-Cyclopropylpyridin-3-yl)-3,4-dihydro-2,7-naphthyridin-2(1H)-yl]sulfonyl}methyl)-5-methylimidazolidine-2,4-dione]
3.8 | 8810 | 1310 | 6.9 | 3760 | CC[C@]1(CS(=O)(=O)N2CCc3cc(-c4cnc(C5CC5)nc4)ccc3C2)NC(=O)NC1=O [Example 5, (5S)-5-({[6-(2-Cyclopropylpyrimidin-5-yl)-3,4-dihydroisoquinolin-2(1H)-yl]sulfonyl}methyl)-5-ethylimidazolidine-2,4-dione]
10.1 | > 10000 | 3050 | 8.78 | > 10000 | C[C@]1(CS(=O)(=O)N2CCc3cc(-c4cnc(C5CC5)nc4)ccc3C2)NC(=O)NC1=O [Example 1, (5S)-5-({[6-(2-Cyclopropylpyrimidin-5-yl)-3,4-dihydroisoquinolin-2(1H)-yl]sulfonyl}methyl)-5-methylimidazolidine-2,4-dione]
